Source: DBAASP
Values after ≈ are worked out from the molar mass of the structure shown.

Key:
Assay in all cases: ≥ marks a high value that may be exact or a test limit, other limits are often not marked, values filed in µg/mL are converted to µM
[1] = test system: Pseudomonas aeruginosa ATCC 27853
[2] = test system: Escherichia coli ATCC 25922
[3] = test system: Staphylococcus aureus ATCC 29213
[4] = test system: Pseudomonas aeruginosa PAO1
[5] = test system: Salmonella enterica subsp. enterica serovar Typhimurium ATCC 14028
[6] = test system: Enterococcus faecalis ATCC 29212
Staphylococcus aureus = test system: Staphylococcus aureus
Escherichia coli = test system: Escherichia coli
Pseudomonas aeruginosa = test system: Pseudomonas aeruginosa
Escherichia coli UB1005 = test system: Escherichia coli UB1005
[7] = test system: Staphylococcus aureus ATCC 25923
[8] = test system: Staphylococcus epidermidis ATCC 12228

Question: How did the MIC [1] turn out when CC(C)C[C@H](NC(=O)CNC(=O)[C@H](C)NC(=O)[C@H](CC(C)C)NC(=O)[C@H](CCCCN)NC(=O)[C@H](CCCCN)NC(=O)[C@H](C)NC(=O)[C@H](CC(C)C)NC(=O)CNC(=O)[C@H](C)NC(=O)[C@H](CC(C)C)NC(=O)[C@H](CCCCN)NC(=O)[C@H](CCCCN)NC(=O)[C@H](C)NC(=O)[C@H](CC(C)C)NC(=O)CNC(=O)[C@H](C)NC(=O)[C@H](CC(C)C)NC(=O)[C@@H](N)CCCCN)C(=O)N[C@@H](C)C(=O)N[C@@H](CCCCN)C(N)=O [KLAGLAKKLAGLAKKLAGLAK] was run?
Answer: Its MIC is 62 µM (≈ 128 µg/mL).

Question: And the MIC [2]?
Answer: Its MIC is 3.88 µM (≈ 8 µg/mL).

Question: And the MIC [3]?
Answer: Its MIC is 7.75 µM (≈ 16 µg/mL).

Question: For CC[C@H](C)[C@H](NC(=O)[C@@H](NC(=O)[C@H](CC(N)=O)NC(=O)[C@H](CC(C)C)NC(=O)[C@H](CCSC)NC(=O)[C@@H](NC(=O)[C@H](Cc1ccccc1)NC(=O)[C@H](Cc1ccccc1)NC(=O)[C@H](CC(N)=O)NC(=O)[C@H](CCCCN)NC(=O)[C@H](CC(C)C)NC(=O)[C@H](CC(N)=O)NC(=O)[C@H](CCCCN)NC(=O)[C@@H](NC(=O)[C@@H](NC(=O)[C@@H](NC(=O)[C@H](C)NC(=O)[C@@H](NC(=O)[C@H](CCCCN)NC(=O)[C@@H](N)CCCCN)[C@@H](C)CC)[C@@H](C)CC)[C@@H](C)CC)[C@@H](C)O)[C@@H](C)CC)[C@@H](C)CC)C(=O)O [KKIAIITKNLKNFFIMLNII], which MIC [4] is on record?
Answer: The MIC was greater than 128 µM.

Question: What does the source list for CC[C@H](C)[C@H](NC(=O)[C@H](CCCCN)NC(=O)CNC(=O)CNC(=O)[C@H](CC(C)C)NC(=O)[C@H](CC(N)=O)NC(=O)[C@H](C)NC(=O)[C@H](C)NC(=O)[C@@H](N)CCC(=O)O)C(=O)N[C@@H](CC(C)C)C(=O)N[C@@H](CCC(=O)O)C(=O)N[C@@H](CCC(=O)O)C(=O)N[C@@H](CCCCN)C(=O)N[C@@H](CCCCN)C(=O)N[C@@H](CC(C)C)C(=O)N[C@@H](CO)C(=O)N[C@@H](CCCN=C(N)N)C(=O)N[C@@H](CC(C)C)C(=O)N1CCC[C@H]1C(=O)N1CCC[C@H]1C(=O)N[C@@H](CO)C(=O)N[C@@H](Cc1cnc[nH]1)C(=O)N[C@@H](CC(C)C)C(=O)O [EAANLGGKILEEKKLSRLPPSHL]?
Answer: MIC [5]: > 200 µM; MIC [6]: > 200 µM; MIC [2]: > 200 µM

Question: Which results are given for CC[C@H](C)[C@H](NC(=O)CNC(=O)[C@H](CO)NC(=O)[C@H](CC(C)C)NC(=O)[C@@H](NC(=O)CN)[C@@H](C)CC)C(=O)N[C@@H](CC(C)C)C(=O)NCC(=O)N[C@@H](CCSC)C(=O)NCC(=O)N[C@@H](CCCCN)C(=O)N[C@@H](CCCCN)C(=O)N[C@@H](CC(C)C)C(=O)N[C@H](C(=O)N[C@H]1CSSC[C@@H](C(=O)O)NC(=O)[C@H](CC(C)C)NC(=O)CNC(=O)[C@H](CO)NC(=O)[C@H](CC(C)C)NC(=O)CNC1=O)C(C)C [GILSGILGMGKKLVCGLSGLC]?
Answer: MIC (Staphylococcus aureus): 50 µM (≈ 101 µg/mL); MIC (Escherichia coli): 15 µM (≈ 30.3 µg/mL)

Question: Which MIC (Staphylococcus aureus) does the source give for CC[C@H](C)[C@H](NC(=O)[C@H](C)NC(=O)[C@H](CO)NC(=O)[C@H](CC(C)C)NC(=O)[C@@H](N)Cc1ccccc1)C(=O)N[C@@H](C)C(=O)N[C@@H](CO)C(=O)N[C@@H](CCSC)C(=O)N[C@@H](CC(C)C)C(=O)NCC(=O)N[C@@H](CCCCN)C(=O)N[C@@H](Cc1ccccc1)C(=O)N[C@@H](CC(C)C)C(=O)O [FLSAIASMLGKFL] here?
Answer: The MIC was 200 µM (≈ 280 µg/mL).

Question: Which MIC (Pseudomonas aeruginosa) does the source give for CC[C@H](C)[C@H](NC(=O)[C@H](Cc1ccccc1)NC(=O)[C@H](CO)NC(=O)[C@H](CCCCN)NC(=O)[C@H](Cc1c[nH]c2ccccc12)NC(=O)[C@@H](N)CCCCN)C(=O)N[C@@H](CC(N)=O)C(=O)N[C@@H](CCCCN)C(=O)N[C@@H](CC(C)C)C(=O)N[C@H](C(=O)N[C@@H](CO)C(=O)N[C@@H](CCCCN)C(=O)N[C@@H](Cc1ccccc1)C(=O)N[C@@H](CC(C)C)C(=O)N[C@@H](Cc1cnc[nH]1)C(=O)N[C@@H](CO)C(=O)N[C@@H](C)C(=O)N[C@@H](CCCCN)C(=O)N[C@@H](CCCCN)C(=O)N[C@@H](Cc1ccccc1)C(N)=O)[C@@H](C)O [KWKSFINKLTSKFLHSAKKF] here?
Answer: The MIC was 5.13 µM (≈ 12.5 µg/mL).

Question: For NCC(=O)N[C@@H](CCCN=C(N)N)C(=O)N[C@@H](CCCN=C(N)N)C(=O)N1CCC[C@H]1C(=O)N[C@@H](CCCN=C(N)N)C(=O)N1CCC[C@H]1C(=O)N[C@@H](CCCN=C(N)N)C(=O)N1CCC[C@H]1C(=O)N[C@@H](CCCN=C(N)N)C(=O)N1CCC[C@H]1C(N)=O [GRRPRPRPRP], which MIC [1] is on record?
Answer: The MIC was greater than 160 µM.

Question: And the MIC [2]?
Answer: The MIC was greater than 160 µM.

Question: What about the MIC [3] of the same compound?
Answer: The MIC was greater than 160 µM.

Question: What does the source list for CC[C@H](C)[C@H](NC(=O)[C@H](CCCCN)NC(=O)[C@H](CCCN=C(N)N)NC(=O)[C@@H](N)CCC(N)=O)C(=O)N[C@@H](CCCN=C(N)N)C(=O)N[C@H](C(=O)N[C@@H](CCCN=C(N)N)C(=O)N[C@@H](CC(C)C)C(=O)N[C@@H](CO)C(=O)N[C@@H](C)C(=O)O)C(C)C [QRKIRVRLSA]?
Answer: MIC [1]: 3.26 µM (≈ 4 µg/mL); MIC [2]: 1.63 µM (≈ 2 µg/mL); MIC [3]: > 52.2 µM

Question: With CC(C)C[C@H](NC(=O)[C@H](Cc1ccc(O)cc1)NC(=O)[C@@H]1CCCN1C(=O)[C@@H]1CCCN1C(=O)[C@H](CCCCN)NC(=O)[C@@H]1CCCN1C(=O)[C@@H](N)C(C)C)C(=O)N1CCC[C@H]1C(=O)N[C@@H](CCCN=C(N)N)C(=O)N1CCC[C@H]1C(=O)N[C@@H](CCCN=C(N)N)C(=O)N1CCC[C@H]1C(=O)N1CCC[C@H]1C(=O)N[C@@H](CCCN=C(N)N)C(=O)N[C@@H](CCCN=C(N)N)C(=O)N[C@@H](CCCCN)C(=O)N[C@@H](Cc1ccc(O)cc1)C(=O)N[C@@H](CC(N)=O)C(=O)N[C@@H](Cc1cnc[nH]1)C(N)=O [VPKPPYLPRPRPPRRKYNH] as the compound, how does the MIC [4] read?
Answer: The MIC was 27 µM (≈ 64 µg/mL).

Question: What about the MIC (Escherichia coli UB1005) of the same compound?
Answer: The MIC was 2.11 µM (≈ 5 µg/mL).

Question: And the MIC [7]?
Answer: The MIC was 3.38 µM (≈ 8 µg/mL).

Question: For CC[C@H](C)[C@H](NC(=O)CN)C(=O)N[C@@H](CCCCN)C(=O)N[C@@H](CCCCN)C(=O)N[C@@H](Cc1c[nH]c2ccccc12)C(=O)N[C@@H](CC(C)C)C(=O)N[C@@H](Cc1cnc[nH]1)C(=O)N[C@@H](CO)C(=O)N1CCC[C@H]1C(=O)N[C@@H](CCCCN)C(=O)N[C@@H](CCCCN)C(=O)N[C@@H](Cc1ccccc1)C(=O)N1CCC[C@H]1C(=O)N[C@@H](CCCCN)C(=O)N[C@@H](CCCCN)C(=O)N[C@@H](Cc1ccccc1)C(=O)N[C@H](C(=O)N[C@@H](CCCCN)C(=O)N[C@@H](CCCCN)C(=O)N[C@H](C(=O)N[C@@H](CCSC)C(=O)N[C@@H](CC(N)=O)C(=O)N[C@@H](CO)C(N)=O)[C@@H](C)CC)C(C)C [GIKKWLHSPKKFPKKFVKKIMNS], which MIC [8] is on record?
Answer: The MIC was 2.5 µM (≈ 6.92 µg/mL).

Question: What about the MIC [2] of the same compound?
Answer: Its MIC is 10 µM (≈ 27.7 µg/mL).

Question: How did the MIC [2] turn out when CC(C)C[C@H](NC(=O)[C@H](CCCCN)NC(=O)[C@H](CC(C)C)NC(=O)[C@H](CC(C)C)NC(=O)[C@H](CCCCN)NC(=O)[C@H](CCCCN)NC(=O)[C@H](CCC(=O)O)NC(=O)[C@H](CC(C)C)NC(=O)[C@H](CCCCN)NC(=O)[C@H](CC(C)C)NC(=O)[C@H](CC(C)C)NC(=O)[C@H](CCCCN)NC(=O)[C@H](CCCCN)NC(=O)[C@@H](N)CC(C)C)C(=O)N[C@@H](C)C(=O)NCC(=O)O [LKKLLKLEKKLLKLAG] was run?
Answer: Its MIC is 5 µM (≈ 9.18 µg/mL).

Question: And the MIC [3]?
Answer: The MIC was greater than 40 µM.

Question: Which results are given for CC[C@H](C)[C@H](NC(=O)[C@H](CCCN=C(N)N)NC(=O)[C@H](CCCN=C(N)N)NC(=O)[C@@H](N)CCC(N)=O)C(=O)N[C@@H](CCCN=C(N)N)C(=O)N[C@H](C(=O)N[C@@H](CCCN=C(N)N)C(=O)N[C@@H](CC(C)C)C(=O)N[C@@H](CO)C(=O)N[C@@H](C)C(=O)O)C(C)C [QRRIRVRLSA]?
Answer: MIC [1]: 51 µM (≈ 64 µg/mL); MIC [2]: 12.8 µM (≈ 16 µg/mL); MIC [3]: > 51 µM

Question: CC(C)C[C@H](NC(=O)[C@H](Cc1ccccc1)NC(=O)[C@H](CCCCN)NC(=O)[C@H](CO)NC(=O)[C@@H](NC(=O)[C@H](CC(C)C)NC(=O)[C@H](CCCCN)NC(=O)[C@H](CCCCN)NC(=O)[C@H](CCCCN)NC(=O)[C@H](Cc1ccccc1)NC(=O)[C@H](CO)NC(=O)[C@H](CCCCN)NC(=O)[C@H](Cc1c[nH]c2ccccc12)NC(=O)[C@@H](N)CCCCN)[C@@H](C)O)C(=O)N[C@@H](Cc1cnc[nH]1)C(=O)N[C@@H](CO)C(=O)N[C@@H](C)C(=O)N[C@@H](CCCCN)C(=O)N[C@@H](CCCCN)C(=O)N[C@@H](Cc1ccccc1)C(N)=O [KWKSFKKKLTSKFLHSAKKF] was tested. Which MIC (Pseudomonas aeruginosa) did it give?
Answer: Its MIC is 5.06 µM (≈ 12.5 µg/mL).

Question: Which MIC [2] does the source give for CC(=O)N[C@@H](CC(C)C)C(=O)N[C@@H](CCCCN)C(=O)N[C@@H](CCCCN)C(=O)N[C@@H](CC(C)C)C(=O)N[C@@H](CC(C)C)C(=O)N[C@@H](CCCCN)C(=O)N[C@@H](CC(C)C)C(=O)N[C@@H](CC(C)C)C(=O)N[C@@H](CCCCN)C(=O)N1CCC[C@H]1C(=O)N[C@@H](CC(C)C)C(=O)N[C@@H](CC(C)C)C(=O)N[C@@H](CCCCN)C(=O)N[C@@H](CC(C)C)C(N)=O [LKKLLKLLKPLLKL] here?
Answer: Its MIC is 5 µM (≈ 8.51 µg/mL).

Question: And the MIC [3]?
Answer: The MIC was 2.5 µM (≈ 4.26 µg/mL).

Question: For CC(C)C[C@H](NC(=O)CNC(=O)[C@H](CCCCN)NC(=O)[C@H](C)NC(=O)[C@H](CC(C)C)NC(=O)[C@H](CCCCN)NC(=O)[C@H](C)NC(=O)[C@H](CC(C)C)NC(=O)CNC(=O)[C@H](CCCCN)NC(=O)[C@H](C)NC(=O)[C@H](Cc1c[nH]c2ccccc12)NC(=O)[C@H](CCCCN)NC(=O)[C@H](C)NC(=O)[C@H](CC(C)C)NC(=O)CNC(=O)[C@H](CCCCN)NC(=O)[C@H](C)NC(=O)[C@H](CC(C)C)NC(=O)[C@@H](N)CCCCN)C(=O)N[C@@H](C)C(N)=O [KLAKGLAKWAKGLAKLAKGLA], which MIC (Staphylococcus aureus) is on record?
Answer: The MIC was 3.74 µM (≈ 8 µg/mL).

Question: What about the MIC (Escherichia coli) of the same compound?
Answer: Its MIC is 3.74 µM (≈ 8 µg/mL).

Question: And the MIC (Pseudomonas aeruginosa)?
Answer: The MIC was 15 µM (≈ 32 µg/mL).
